Format in all cases: physicochemical
Data set [1] in a line: Controlled temperature (isothermal) X-ray powder diffraction: thermal stability of the crystalline form. Particulars: dry nitrogen; for form conversion as the temperature is raised (isothermal XRPD): ambient to 210° C.; for loss of stability (lines unique to the form disappear), isothermal XRPD: sample containing Forms E, F, and G, steps of 10° C. The protocol:
X-ray powder diffraction (XRPD) is performed on various samples of the Citrate Salt using one of three instruments. XRPD measurements with Instrument 1 utilize a Siemens-Bruker D5000 Matic powder diffractometer with a Bragg-Brentano (vertical θ-2θ configuration) parafocusing geometry. X-rays are produced from a sealed cobalt anode running at 40 kV and 30 mA. Two lines are typically emitted: CoKα1 (λ=1.7890 Å) and CoKα2 (λ=1.7929 Å). An iron β-filter limits the CoKβ (λ=1.6208 Å) radiation to about 1% of the diffracted beam at the detector. The primary beam passes through a parallel plate collimator (0.2 mm Soller slits), then through a divergence slit (0.2 mm). Diffracted X-rays are detected with a Braun 50 M multichannel linear detector having a 10°-wide detection window in angle 2θ. Scans are performed from 1.5° to 50.0° in 2θ, the scan time being 10 to 40 seconds per degree in 2θ. The error in the 2θ locations are typically within ±0.10 degrees.
In Instrument 3, XRPD measurements are performed at different temperatures to elucidate the evolution of crystal structure with temperature. Tests are carried out with a Siemens-Bruker D5000 diffractometer equipped with the Bragg Brentano parafocusing (θ-θ) geometry and an Anton-Paar TTK temperature chamber. Measurements utilize dry nitrogen or nitrogen streams having a particular humidity. The instrument specifications are substantially similar to the Siemens-Bruker D5000 Matic instrument described above (Instrument 1). Temperature is allowed to rise at a rate of 0.05° C./sec. Scans are recorded under the following conditions: a 1.5 to 50.0 degree scan in angle 2θ, 10 to 20 seconds counting time per degree in 2θ. Data are acquired in isotherm mode when the requested temperature is reached.

The nature of data set [2]: Differential scanning calorimetry (DSC). The protocol: Differential scanning calorimetry (DSC) analyses are performed using a T.A Instruments Q1000 thermal analyser. Analyses are carried out using nitrogen purge gas flowing at an average rate of 50 ml/min. A mechanical compressor cools the system, and equilibrates the instruments being used at ambient temperature between analyses. […] Energy calibration is performed with a certified indium calibrator (melting enthalpy of 28.45 J/g), applying a heating rate of 5° C./min. The temperatures identified from DSC scans of a particular sample are accurate to within ±3° C. […] Modulated temperature differential scanning calorimetry (MTDSC) is also used since deconvolution of the total heat flow into reversing and non-reversing heat flows allows the transitions to be easily identified. The samples were submitted to the same experimental temperature program: after the equilibration of the sample at −5° C., the samples were heated through a modulated program from −5° C. to 210° C. at a rate of 1° C./min. […] Experiments are performed using crimped aluminium sample pans or open pans in some cases. The quantity of product analysed is typically between 2 and 13 mg.
In general terms: DSC measures the heat that a sample takes up or gives off during a temperature scan.

Data set [3] in a line: Water sorption/desorption cycling (dynamic vapor sorption, DVS) at 25° C., with XRPD before and after. As to conditions: for XRPD before and after water sorption/desorption cycling: four consecutive cycles, start at 40%, cycled between 100% and 0% relative humidity, mixed samples; for global / net weight loss after all 4 water sorption/desorption cycles: four cycles between 100% and 0% relative humidity. The protocol: Water sorption measurements are performed on a DVS-1 automated gravimetric vapor sorption analyser (Surface Measurement Systems Ltd., London, UK). The DVS-1 measures the uptake and loss of vapor gravimetrically using a Cahn D200 recording ultra-microbalance with a mass resolution of ±0.1 μg. The relative humidity around the sample is controlled by mixing saturated and dry carrier gas streams using mass flow controllers. The temperature is maintained within ±0.1° C. by enclosing the entire system in a temperature-controlled incubator. A sample size between 15 and 20 mg is used. In general, the error in % (w/w) identified in a tested sample is ±0.1% (w/w).
Two protocols are utilized to operate the DVS. In one protocol, a sample is dried at 0% relative humidity (RH) to remove any surface water present and establish a dry, baseline mass. Next, the sample is exposed to the following relative humidity profile: 0%, 10%, 20%, 30%, 40%, 50%, 60%, 70%, 80%, 90%, 80%, 70%, 60%, 50%, 40%, 30%, 20%, 10%, 0%. In some instances, this profile is repeated, yielding 4 sets of data going up and down in RH. In another protocol, the sample is first equilibrated at 40% RH, then it was exposed to the following relative humidity profile: 40%, 50%, 60%, 70%, 80%, 90%, 100%, 90%, 80%, 70%, 60%, 50% 40% 30%, 20% 10%, 0%, 10%, 20%, 30%, 40%. […] If equilibrium state is not reached, the change in relative humidity took place automatically after 360 or 600 minutes. From the complete moisture sorption and desorption profile, an isotherm is calculated using the DVS Advanced Analysis Suite v3.6. All experiments were performed at 25° C.

A short description of data set [4]: Thermal gravimetric analysis (TGA). The protocol: Measurements utilizing thermal gravimetric analysis (TGA) are carried out on a T.A. instruments TGAQ500 analyzer. Mass calibration is performed with 10 and 100 mg certified masses. Temperature calibration is performed with Alumel® and nickel standards (Curie points of respectively 154° C. and 354° C.). Samples are exposed to a constant nitrogen stream of 60 ml/min, and temperature ranges from room temperature to 350° C. at a 5° C./min rate. The quantity of product tested is between 2 and 13 mg. The sample is deposited in an open aluminum sample pan, which is itself placed in a platinum pan. The temperatures identified from TGA scans of a particular sample are accurate to within ±3° C. Simultaneous TGA and DSC measurements are carried out using a […] thermal analysis system produced by the […] corporation. A liquid nitrogen cooling system makes it possible to work at temperatures below 20° C. The emitted gases, upon sample heating, are carried by a transfer capillary tube to a Pfeiffer mass spectrometer, the capillary tube heated to 150° C. The mass spectrometer can analyze molecular fragments at <<m/e>> ratios between 1 and 200 uma. A sample with a mass between 1 and 27 mg is contained in an open concave aluminum sample pan (75 μL capacity) exposed to a nitrogen stream. The sample is heated at a rate of 1 or 5° C./min.

Setting [5] is: mixture of Forms A and D, 0.3° C./min, Form D: conversion to Form A, Form A: melting/decomposition.
Setting [6] is: transition 3411 (first endothermic transition, conversion of Form E to Form B), heating rate 5° C./min.
[7] abbreviates: transition 3412 (second endothermic transition, conversion of Form F to Form B), heating rate 5° C./min.
Where [8] appears, read: transition 3413 (third endothermic transition, conversion of Form G to Form B), heating rate 5° C./min.
Setting [9] is: transition 3414 (fourth endothermic transition, decomposition/melting of crystalline Form B), heating rate 5° C./min.
Setting [10] is: 25° C., listed as Forms E, F, and G.
Where [11] appears, read: weight transition 2811 (conversion away from Form E), 5° C./min.
[12] abbreviates: weight transition 2812 (conversion away from Form F), 5° C./min.
Setting [13] is: weight transition 2813 (conversion away from Form G), 5° C./min.
Setting [14] is: weight transition 2814 (decomposition/melting of crystalline Form B, loss of citrate), 5° C./min.
Setting [15] is: heating rate 5° C./min, A, B, H: melting/decomposition, E: loss of water and conversion to Form H, ±3° C.
[16] abbreviates: heating rate 5° C./min, sample of the single form (Form H formed from Form E sample), ±3° C.
Setting [17] is: mixture of Forms A and D, 0.3° C./min.
Where [18] appears, read: sample containing Forms A and D, 5° C./min.

Counter-ions that a name gives are not always drawn. Where only a bound is given, the exact number is not on record here.

As to `CC(C)(O)c1ccc2c(c1)/C(=C/CCN1CC[C@](O)(c3ccc(Cl)cc3)C(C)(C)C1)c1cccnc1CO2` [Form D, citrate salt of (S)-4-(4-Chloro-phenyl)-1-{3-[7-(1-hydroxy-1-methyl-ethyl)-11H-10-oxa-1-aza-dibenzo[a,d]cyclohepten-5-ylidene]-propyl}-3,3-dimethyl-piperidin-4-ol], in data set [1] (sample containing Forms A and D), the “transition to Form A observed by temperature controlled XRPD” value is “below 60 °C”. In addition, in data set [2] (setting [5]), the “DSC endothermic transition, Tmax” value was 52 °C and the “DSC endothermic transition, interpolated beginning temperature” value was “about 47 °C”. Also, the “DSC endothermic transition, integrated enthalpy” value in data set [2] (mixture of Forms A and D, 0.3° C./min, conversion of Form D to Form A) is 3.7 J/g. Moreover, the “XRPD before and after water sorption/desorption cycling” value in data set [3] (25° C.) is recorded as “disappeared after the cycling; only the signature of Form A remains”.
As for `CC(C)(O)c1ccc2c(c1)/C(=C/CCN1CC[C@](O)(c3ccc(Cl)cc3)C(C)(C)C1)c1cccnc1CO2` [Form E, F, and G], the “Integrated Enthalpy Change” value in data set [2] (setting [6]) was 20.3 J/g; in data set [2] (setting [7]), 5.8 J/g; in data set [2] (setting [8]), 2.4 J/g. For the same molecule, the “Interpolated Starting T” value in data set [2] (setting [6]) is 78 °C; in data set [2] (setting [7]), 119 °C; in data set [2] (setting [8]) it was 131 °C; in data set [2] (setting [9]), 165 °C. Further, the Tmax in data set [2] (setting [6]) was determined as 99 °C; in data set [2] (setting [7]), 124 °C; in data set [2] (setting [8]), 136 °C; in data set [2] (setting [9]) it was 181 °C. For the same molecule, the “global / net weight loss after all 4 water sorption/desorption cycles” value in data set [3] (setting [10]) was “about 7.5 % (w/w)”. Also, in data set [3] (setting [10]), the “weight change / water uptake between 10% and 90% relative humidity” value is reported as 2.10 % (w/w). Moreover, in data set [3] (setting [10]), the “weight gain / water uptake as relative humidity is increased from 0% to 10%” value is reported as 3.76 % (w/w). Moreover, the “Interpolated Starting T (° C.)” value was found to be 42 °C in data set [4] (setting [11]), 110 °C in data set [4] (setting [12]), 131 °C in data set [4] (setting [13]) and 166 °C in data set [4] (setting [14]). Besides, the “T (° C.) corresponding to Max. Rate of Weight Change” value in data set [4] (setting [11]) amounted to 50 °C; in data set [4] (setting [12]) it was 123 °C; in data set [4] (setting [13]), 138 °C; in data set [4] (setting [14]), 187 °C. Moreover, the “Weight Loss % (w/w)” value in data set [4] (setting [11]) is recorded as 1.9 % (w/w); in data set [4] (setting [12]) it was 3.6 % (w/w); in data set [4] (setting [13]), 1.6 % (w/w); in data set [4] (setting [14]) it was 22.6 % (w/w).
As to `CC(C)(O)c1ccc2c(c1)/C(=C/CCN1CC[C@](O)(c3ccc(Cl)cc3)C(C)(C)C1)c1cccnc1CO2` [Form F, citrate salt of (S)-4-(4-Chloro-phenyl)-1-{3-[7-(1-hydroxy-1-methyl-ethyl)-11H-10-oxa-1-aza-dibenzo[a,d]cyclohepten-5-ylidene]-propyl}-3,3-dimethyl-piperidin-4-ol], in data set [1], the “form conversion as the temperature is raised (isothermal XRPD)” value is recorded as “converts to Form B” and the “loss of stability (lines unique to the form disappear), isothermal XRPD” value is “greater than 110 °C”. Moreover, in data set [3] (25° C.), the “XRPD before and after water sorption/desorption cycling” value was “disappears”.
On to `CC(C)(O)c1ccc2c(c1)/C(=C/CCN1CC[C@](O)(c3ccc(Cl)cc3)C(C)(C)C1)c1cccnc1CO2` [Form G, citrate salt of (S)-4-(4-Chloro-phenyl)-1-{3-[7-(1-hydroxy-1-methyl-ethyl)-11H-10-oxa-1-aza-dibenzo[a,d]cyclohepten-5-ylidene]-propyl}-3,3-dimethyl-piperidin-4-ol], for which, in data set [1], the “form conversion as the temperature is raised (isothermal XRPD)” value is “converts to Form B” and the “loss of stability (lines unique to the form disappear), isothermal XRPD” value was ≥ 130 °C. Besides, the “XRPD before and after water sorption/desorption cycling” value in data set [3] (25° C.) was “have dissipated”.
As to `CC(C)(O)c1ccc2c(c1)/C(=C/CCN1CC[C@](O)(c3ccc(Cl)cc3)C(C)(C)C1)c1cccnc1CO2` [Form H, citrate salt of (S)-4-(4-Chloro-phenyl)-1-{3-[7-(1-hydroxy-1-methyl-ethyl)-11H-10-oxa-1-aza-dibenzo[a,d]cyclohepten-5-ylidene]-propyl}-3,3-dimethyl-piperidin-4-ol], in data set [2] (setting [15]), the “DSC endothermic transition, Tmax” value was determined as 141 °C and the “DSC endothermic transition, interpolated beginning temperature” value was 131 °C. In data set [3] (ambient temperatures), the “behaviour when exposed to 10% relative humidity or higher” value is “reversibly transforms into form E”. In addition, in data set [4] (heating rate 5° C./min, sample of the single form (Form H formed from Form E sample)), the “TGA weight loss of the transition” value was 20.10 % (w/w). In data set [4] (setting [16]), the “TGA weight loss transition, interpolated beginning temperature” value stood at 127 °C and the “TGA weight loss transition, temperature of maximum rate of weight loss” value came out at 142 °C.
`CC(C)(O)c1ccc2c(c1)/C(=C/CCN1CC[C@](O)(c3ccc(Cl)cc3)C(C)(C)C1)c1cccnc1CO2` [Forms A and D]: in data set [2] (setting [17]), the “DSC endothermic transition 1912 (release of THF), Tmax” value was determined as 77 °C; the “DSC endothermic transition 1912 (release of THF), beginning temperature” value was “about 60 °C”; the “DSC endothermic transition 1912 (release of THF), enthalpy” value was found to be 18.1 J/g. The “global / net weight loss after all 4 water sorption/desorption cycles” value in data set [3] (25° C.) is on record as “about 14.3 % (w/w)”. For the same molecule, in data set [4] (setting [18]), the “TGA second weight loss transition 1812, interpolated beginning temperature” value is 164 °C and the “TGA second weight loss transition 1812, temperature of maximum weight loss rate” value was 180 °C.

Source of the values: patent US7960549B2, “Solid forms of a chemokine receptor antagonist and methods of use thereof” (priority 2004, dated 2011).
